Results reported in patent US20260357222A1, “GROWTH-BASED SELECTION PLATFORM FOR NONCANONICAL COFACTOR OXIDIZING ENZYMES” (The Regents of the University of California, priority 2022, published 2026).

Assays:
Type in all cases: biochemical
[1] = target: T1, Lactobacillus pentosus NADH oxidase (Lp Nox), wild type, SEQ ID NO:1 (Lactiplantibacillus pentosus, UniProt A0A0U3FIG2); assay: Lp Nox enzymatic kinetics, cofactor oxidation at 340 nm, wild type; settings: role: cofactor; apparent; 50 mM Tris-HCl pH 7.0, 37 °C; cofactor 0 to 2 mM
T1 sequence (A0A0U3FIG2 1-450): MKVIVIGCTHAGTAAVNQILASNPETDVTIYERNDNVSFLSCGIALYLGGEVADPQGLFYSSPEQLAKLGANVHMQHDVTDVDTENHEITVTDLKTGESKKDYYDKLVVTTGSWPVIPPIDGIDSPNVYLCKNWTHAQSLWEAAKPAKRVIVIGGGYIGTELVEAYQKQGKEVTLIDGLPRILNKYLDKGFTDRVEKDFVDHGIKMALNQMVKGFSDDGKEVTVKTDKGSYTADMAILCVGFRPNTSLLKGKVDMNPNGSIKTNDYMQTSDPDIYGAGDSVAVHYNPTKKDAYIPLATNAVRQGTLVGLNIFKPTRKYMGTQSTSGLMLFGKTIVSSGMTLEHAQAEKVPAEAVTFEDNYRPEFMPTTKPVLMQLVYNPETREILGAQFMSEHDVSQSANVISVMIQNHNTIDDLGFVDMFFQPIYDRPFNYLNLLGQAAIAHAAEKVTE
Experimental: (§1) Protein Expression and Purification. Lp Nox wild type or variants (see Table 1) are expressed with E. coli BL21 (DE3) with plasmids inoculated in 2× YT media with 200 mg L^−1 ampicillin. Expression was carried out by inoculation of 20 mL 2× YT media supplied with antibiotics and an overnight culture incubated at 30 °C, 250 RPM with an OD600nm of 0.072. Cells were grown at 37 °C in 50 mL conical tubes, and the cultures were induced with 0.5 mM IPTG at an OD600nm of 0.6-1.0. The 20 mL culture was then incubated at 27 °C and 250 RPM for 24 h. After 24 h, cells were harvested for protein extraction (centrifugation at 4 °C, 3000 RPM, 20 min). Cell pellets were resuspended in Zymo His-Binding buffer (Zymo Research Corporation) supplied with 0.15 mM FAD, 1 μL/mL DNase (Sigma Aldrich) and 1 mM InSolution [COMPOUND LEFT OUT] (Sigma Aldrich). The resuspended cell mixture was added to 0.5 mL of 0.1 mm glass beads (Biospec) and homogenized using a benchtop homogenizer (MP Biomedicals). Cell debris was separated from the crude extract by centrifugation at 4 °C and 15,000 RPM for 5 min. Protein purification was performed using His-Spin Protein Miniprep (Zymo Research Corporation) according to the manufacturer's instructions. The concentrations of purified protein were quantified by a Bradford assay using BSA as a standard. Purified protein was stored in aliquots with 20% (v/v) glycerol at −80 °C.
NMNH generation. NMNH generation was performed in 20 mL reaction volumes in a 50 ml conical tube containing 200 mM Tris-Cl at pH 8.0, 100 mM sodium chloride, 3 mM potassium chloride, 200 mM glucose, and 20 m MNMN^+. The reaction was initiating by spiking 500 ng of purified Bacillus subtilis glucose dehydrogenase I195R8. The reaction was incubated at 30 °C until reaction progression stopped, approximately 6 h. Reaction progression was monitored by observing the increase in light absorption at 340 nm, corresponding to the reduction of NMN^+ to NMNH. Then, the solution was filtered through a 15 kD cutoff filter to remove the protein. […] The elution step was repeated until no NMNH remained in the flow through, as monitored by light absorption at 340 nm. […]
Lp Nox Enzymatic Assays and Kinetic study with NMNH, NAD(P) H. The Lp Nox activity (see FIG. 4A) was determined by the change in light absorption at 340 nm at 37 °C in 50 mM Tris-Cl buffer pH 7.0. […] The absorbance change at 340 nm for NAD(P) H and NMNH was detected using a SpectraMax M3 microplate reader. […] Cofactor concentration over 2 mM could not be measured accurately on M3 spectrometer due to detector absorbance saturation at 340 nm.

[2] = target: T2, Lactobacillus pentosus NADH oxidase (Lp Nox) variant LP-7 (I158S-D177W-V240L), SEQ ID NO:3 (Lactiplantibacillus pentosus, UniProt A0A0U3FIG2, D177W/I158S/V240L); assay: Lp Nox enzymatic kinetics, cofactor oxidation at 340 nm, variant LP-7; settings: role: cofactor; apparent; 50 mM Tris-HCl pH 7.0, 37 °C; cofactor 0 to 2 mM
T2 construct: variant LP-7
T2 sequence (A0A0U3FIG2 1-450 I158S/D177W/V240L): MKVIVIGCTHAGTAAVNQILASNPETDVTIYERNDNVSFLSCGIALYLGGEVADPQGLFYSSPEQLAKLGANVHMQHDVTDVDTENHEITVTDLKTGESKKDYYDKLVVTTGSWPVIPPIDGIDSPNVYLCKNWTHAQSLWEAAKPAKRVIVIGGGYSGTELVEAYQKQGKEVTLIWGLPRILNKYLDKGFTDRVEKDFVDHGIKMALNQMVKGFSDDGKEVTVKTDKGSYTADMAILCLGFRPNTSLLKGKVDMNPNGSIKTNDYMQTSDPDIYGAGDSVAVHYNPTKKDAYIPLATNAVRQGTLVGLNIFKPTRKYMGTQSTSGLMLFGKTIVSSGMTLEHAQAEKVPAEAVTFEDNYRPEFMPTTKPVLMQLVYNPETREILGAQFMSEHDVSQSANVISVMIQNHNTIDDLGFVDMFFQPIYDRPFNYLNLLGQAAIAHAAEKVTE
Experimental: as §1
(§2) NMNH generation. NMNH generation was performed in 20 mL reaction volumes in a 50 ml conical tube containing 200 mM Tris-Cl at pH 8.0, 100 mM sodium chloride, 3 mM potassium chloride, 200 mM glucose, and 20 m MNMN^+. The reaction was initiating by spiking 500 ng of purified Bacillus subtilis glucose dehydrogenase I195R8. The reaction was incubated at 30 °C until reaction progression stopped, approximately 6 h. Reaction progression was monitored by observing the increase in light absorption at 340 nm, corresponding to the reduction of NMN^+ to NMNH. Then, the solution was filtered through a 15 kD cutoff filter to remove the protein. To purify the NMNH, the flowthrough was mixed with HPLC-grade acetonitrile to a final concentration of 70% acetonitrile, and the solution was passed through a Phenomenex Strata NH2 (2 g/12 mL, 55 μm, 70 Å) solid phase extraction column. The column was washed twice with 4 mL of 70:30 acetonitrile:water, then twice with 4 mL of 50:50 acetonitrile:water, twice with 4 mL of 30:70 acetonitrile:water, twice with 4 mL of nanopurified water, and finally twice with 4 mL of methanol. To elute the NMNH from the column, 2 mL of a solution containing 50:50 ammonium hydroxide:methanol was added to the column and incubated for 3 minutes before eluting. The elution step was repeated until no NMNH remained in the flow through, as monitored by light absorption at 340 nm. The elution fractions containing NMNH were pooled and aliquoted in 1 mL volumes into clean tubes. The solutions were dried over air and stored at −80 °C until use.
(§3) Lp Nox Enzymatic Assays and Kinetic study with NMNH, NAD(P) H. The Lp Nox activity (see FIG. 4A) was determined by the change in light absorption at 340 nm at 37 °C in 50 mM Tris-Cl buffer pH 7.0. The reactions were started by adding the purified protein to the prewarmed 37 °C assay mixture containing 0.3 mM of respective cofactor. The absorbance change at 340 nm for NAD(P) H and NMNH was detected using a SpectraMax M3 microplate reader. For kinetics parameter determination (see Table 2), cofactor concentrations were varied from 0 to 2 mM and the results were fitted to the standard Michaelis-Menten equation or Lineweaver-Burk equation to acquire catalytic efficiencies (kcat/Km) when the cofactor concentration tested could not saturate the enzyme activity or during the presence of substrate inhibition. Cofactor concentration over 2 mM could not be measured accurately on M3 spectrometer due to detector absorbance saturation at 340 nm.

[3] = target: T3, Lactobacillus pentosus NADH oxidase (Lp Nox) variant LP-3 (I158S-D177W-G178E-V240L), SEQ ID NO:6 (Lactiplantibacillus pentosus, UniProt A0A0U3FIG2, D177W/G178E/I158S/V240L); assay: Lp Nox enzymatic kinetics, cofactor oxidation at 340 nm, variant LP-3; settings: role: cofactor; apparent; 50 mM Tris-HCl pH 7.0, 37 °C; cofactor 0 to 2 mM
T3 construct: variant LP-3
T3 sequence (A0A0U3FIG2 1-450 I158S/D177W/G178E/V240L): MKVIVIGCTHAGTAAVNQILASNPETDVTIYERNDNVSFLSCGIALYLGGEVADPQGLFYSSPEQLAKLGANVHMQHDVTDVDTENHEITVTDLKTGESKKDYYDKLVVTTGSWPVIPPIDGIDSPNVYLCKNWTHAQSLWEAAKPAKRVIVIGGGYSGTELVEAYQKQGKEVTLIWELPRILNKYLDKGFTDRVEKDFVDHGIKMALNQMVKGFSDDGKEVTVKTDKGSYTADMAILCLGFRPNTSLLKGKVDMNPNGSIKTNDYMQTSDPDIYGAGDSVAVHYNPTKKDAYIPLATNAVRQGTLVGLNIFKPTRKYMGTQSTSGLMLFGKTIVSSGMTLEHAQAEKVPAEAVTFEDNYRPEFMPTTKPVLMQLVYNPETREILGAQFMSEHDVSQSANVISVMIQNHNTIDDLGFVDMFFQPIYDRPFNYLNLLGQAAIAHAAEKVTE
Experimental: as §1, §2, §3

[4] = target: T4, Lactobacillus pentosus NADH oxidase (Lp Nox) variant LP-3-EP (I158S-D177W-G178E-V240L-P362H-V395L), SEQ ID NO:7 (Lactiplantibacillus pentosus, UniProt A0A0U3FIG2, D177W/G178E/I158S/P362H/V240L/V395L); assay: Lp Nox enzymatic kinetics, cofactor oxidation at 340 nm, variant LP-3-EP
T4 construct: variant LP-3-EP
T4 sequence (A0A0U3FIG2 1-450 I158S/D177W/G178E/V240L/P362H/V395L): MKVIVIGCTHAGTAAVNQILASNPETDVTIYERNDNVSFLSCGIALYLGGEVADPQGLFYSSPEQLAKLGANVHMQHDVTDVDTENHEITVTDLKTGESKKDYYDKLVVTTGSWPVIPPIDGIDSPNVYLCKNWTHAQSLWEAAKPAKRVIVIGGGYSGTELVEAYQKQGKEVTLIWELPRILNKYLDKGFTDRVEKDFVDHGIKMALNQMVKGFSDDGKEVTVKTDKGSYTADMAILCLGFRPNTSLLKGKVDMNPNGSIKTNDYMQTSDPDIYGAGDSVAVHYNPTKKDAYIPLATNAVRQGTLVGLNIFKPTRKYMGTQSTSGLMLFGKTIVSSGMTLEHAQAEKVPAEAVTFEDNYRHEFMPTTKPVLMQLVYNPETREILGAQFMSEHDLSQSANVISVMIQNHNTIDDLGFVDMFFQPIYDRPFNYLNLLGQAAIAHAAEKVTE
Experimental: as §1, §2, §3

## NC(=O)C1=CN([C@@H]2O[C@H](COP(=O)(O)OP(=O)(O)OC[C@H]3O[C@@H](n4cnc5c(N)ncnc54)[C@H](OP(=O)(O)O)[C@@H]3O)[C@@H](O)[C@H]2O)C=CC1 [NADPH, nicotinamide adenine dinucleotide phosphate]
[1]
  Km: 1900 ± 200 µM
  kcat: 18 ± 2 s⁻¹
  kcat/Km: 9300 ± 200 M⁻¹ s⁻¹
[2]
  Km: 890 ± 40 µM
  kcat: 27 ± 2 s⁻¹
  kcat/Km: 31000 ± 1000 M⁻¹ s⁻¹
[3]
  Km: 1100 ± 100 µM
  kcat: 28 ± 1 s⁻¹
  kcat/Km: 26000 ± 1000 M⁻¹ s⁻¹
[4]; role: cofactor, 50 mM Tris-HCl pH 7.0, 37 °C, estimated based on kinetics under lower cofactor concentrations before inhibition was observed
  kcat/Km: 51 ± 3^c mM^−1s^−1
[4]; role: inhibitor (cofactor inhibition), above 1 mM NADH or NADPH, fits poorly with the substrate inhibition rate equation
  inhibition of LP 3-EP activity by the cofactor: strongly inhibited
